Key:
[1] = test system: blood CSF barrier brain OrG (ChP OrG); assay: ChP OrG drug permeability into CSF (optical density of collected CSF); format: cell-based, human; conditions: 72 h, SLCP Cur 500 μM, CSF collected via syringe
Experimental: (§1) FIG. 6A-6H. ChP OrG efficiently screens drug permeability. (FIG. 6A) We have used curcumin (Cur), a natural polyphenolic antioxidant that can disaggregate Amyloid beta (AB) and tau. (FIG. 6B) We have prepared the Cur with H2O and lipids to generate a solid lipid curcumin particle (SLCP). […] (FIG. 6D-6F) We added SLCP and non-formulated (H2O dissolved) Cur to the blood CSF barrier brain OrG (ChP OrG) for 72 h and obtained images. (FIG. 6G) We then collected CSF via a syringe and processed it to measure optical density using a plate reader to determine whether SLCP Cur (500 μM) was permeable into CSF. […] Our novel B-CSFb grown on an HT electrode plate is highly efficient in studying drug permeability on the HT scale and provides insight into using our ChP OrG to accelerate the drug development process for various CNS diseases. Scale bar 100 μm.
To generate ChP OrG, we use methods similar to those used to generate cCerebral OrG, except for the composition of OrGspheroid SRB media, which contained 50% KSR, 0.1% lipid-rich albumin (AlbuMAX), including all other components as stated in Example 1. For ChP OrG, neural induction was up to 9 days. Neural induction medium was the same as Example 2. Further, neural-induced OrGspheroid (>500 μm) was seeded with gel-matrix domes with a volume of OrGspheroid to MvECs at a 1:20 ratio. […]

[2] = Preparation of curcumin with H2O (visual); format: physicochemical; conditions: glass vial, non-formulated
Experimental: as §1

[3] = test system: synaptophysin and PSD-95 in cCerebral OrG; assay: ICC of synaptic marker proteins in cCerebral OrG injected with AD toxic proteins; format: cell-based, human; conditions: AB or tau alone, injected twice with 10-50 μl (1 mg/ml)
Experimental: FIG. 8A-8D. Verify compatibility to screening NGL ready-to-use brain OrG in other screening platforms with multiple agents. (FIG. 8A) NGL cCerebral was injected twice with 10-50 μl (1 mg/ml) of Alzheimer's disease (AD) toxic proteins (AB and tau oligomers). (FIG. 8B) We found AB and tau together, especially 50 μg concentration, reduced in higher levels of pre- and post-synaptic density marker proteins (synaptophysin and PSD-95) compared to 10 μg concentrations using ICC. […] (FIG. 8C) We compared synaptic loss with the electrode plate signal developed by Applied Biophysics (ABP). We have plated our cCerebral OrG onto ABP electrodes with gel-matrix twice coating to attach efficiently onto cCerebral OrG onto electrodes. Usually, marketed electrode attaching floating OrG tends to be challenging. OrG often slips or moves away from the electrode, thus needing twice or triple-coating layers with gels, providing a great insight into our floating electrode plate novelty compared to other marketed electrodes. After the cCerebral OrG attachment was maintained and grown on the electrode plate for one week and treated with or without the combination of AB and tau (10 and 50 μg).
ICC is a common cellular protein or antigen-detecting and visualization technique that can recognize the target of interest or specific marker expression in cells via quantification imaging. […]

brain OrG = assay: NGL HT electrode plate signal of brain OrG; format: cell-based, human; conditions: 64000 Hz
From the text: HT electroconductive sensing array combined with our optimized brain OrG is the first innovative technology that can be marketed for floating brain OrG for screening pathogens, drugs, and toxicity at a rapid and robust scale. Brain OrG-specific shape 1-3 mm range grown on an electroconductive plate designed and developed by NGL with pay-based service to obtain ECIS base electrode with a desired signal with or without agents. ECIS here refers to electric cell-substrate impedance sensing. We first developed 8 well plates with an electrode. […] We used a nanofarads capacitance (nF) signal curve at 64000 Hz. We determined that the media sample (without OrG, baseline) average signal is 3.7 nF compared to cerebral OrG (˜2 nF), and the same measurement was also acquired by resistance (Ohms).
To determine HT screening various agents, we designed and developed a next-generation HT electrode plate where brain OrG can grow in floating conditions with electrode chambers that can control OrG size without batch-to-batch variations. To develop these electrode sensor chambers (FIG. 7A-7B), we have designed and developed a typical 8×12 configuration that allows 96 samples to be measured and can be upgraded to 384 wells. […] These converters will sample at four times the excitation frequency, thus allowing both the amplitude and phase of the signal at V1 to V2 be measured with an algorithm.

| Compound | Cur concentration in CSF (permeable into CSF / B-CSFb) [1] | Cur concentration in CSF (permeable into CSF / B-CSFb) ([1]; listed as unformulated Cur) | behaviour when prepared with H2O [2] | synaptic proteins (synaptophysin and PSD-95) [3] | brain OrG-derived toxic response signal compared to untreated brain OrG (brain OrG) |
| --- | --- | --- | --- | --- | --- |
| COc1cc(/C=C/C(=O)CC(=O)/C=C/c2ccc(O)c(OC)c2)ccc1O [non-formulated Cur, curcumin] | not detected in CSF | undetected in CSF | precipitated on the bottom of the glass vial |  |  |
| AB: synthetic amyloid-beta (AB) oligomers, Alzheimer's disease toxic protein |  |  |  | unable to significantly reduce synaptic proteins | significantly and sensitively differentiated |

From patent publication US20250320443A1, “Human Brain Organoid, methods for making the brain organoid, and methods of using the brain organoid for high throughput rapid screening and/or evaluation of agents” (NeyroblastGX LLC, priority 2023, published 2025)
